From PMC11017298, “Macrocyclic Oxindole Peptide Epoxyketones—A Comparative Study of Macrocyclic Inhibitors of the 20S Proteasome” (ACS Medicinal Chemistry Letters, 2024) come the findings set out here.

Like-named read-outs stand apart in the source and are kept apart here.

Format in all cases: biochemical
One experiment deals with T1, m-calpain (Sus scrofa, UniProt P35750).
T1 construct: erythrocytes calpain-1 were purchased from Millipore; purchased Millipore; host or cells: porcine erythrocytes
T1 sequence (P35750 1-714): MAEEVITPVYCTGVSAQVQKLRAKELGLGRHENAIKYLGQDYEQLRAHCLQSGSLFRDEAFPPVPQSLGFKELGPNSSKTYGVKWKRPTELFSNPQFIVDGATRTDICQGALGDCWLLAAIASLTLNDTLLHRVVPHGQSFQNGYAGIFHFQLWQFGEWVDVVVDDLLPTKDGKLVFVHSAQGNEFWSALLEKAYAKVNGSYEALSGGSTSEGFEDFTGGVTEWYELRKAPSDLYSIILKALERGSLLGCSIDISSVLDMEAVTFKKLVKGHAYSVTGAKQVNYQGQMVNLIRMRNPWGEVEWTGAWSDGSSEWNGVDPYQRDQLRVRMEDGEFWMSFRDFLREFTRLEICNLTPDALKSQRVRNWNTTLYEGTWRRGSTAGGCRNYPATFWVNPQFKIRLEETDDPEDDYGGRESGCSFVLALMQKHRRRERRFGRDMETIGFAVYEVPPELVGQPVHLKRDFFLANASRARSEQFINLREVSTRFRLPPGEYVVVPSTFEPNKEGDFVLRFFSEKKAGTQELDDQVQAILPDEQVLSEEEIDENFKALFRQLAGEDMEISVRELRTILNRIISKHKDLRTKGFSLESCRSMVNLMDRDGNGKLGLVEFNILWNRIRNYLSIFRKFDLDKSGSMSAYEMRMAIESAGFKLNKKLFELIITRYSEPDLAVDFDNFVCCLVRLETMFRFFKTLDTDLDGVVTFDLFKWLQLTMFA
T1 sequence (P04574 1-266 partner): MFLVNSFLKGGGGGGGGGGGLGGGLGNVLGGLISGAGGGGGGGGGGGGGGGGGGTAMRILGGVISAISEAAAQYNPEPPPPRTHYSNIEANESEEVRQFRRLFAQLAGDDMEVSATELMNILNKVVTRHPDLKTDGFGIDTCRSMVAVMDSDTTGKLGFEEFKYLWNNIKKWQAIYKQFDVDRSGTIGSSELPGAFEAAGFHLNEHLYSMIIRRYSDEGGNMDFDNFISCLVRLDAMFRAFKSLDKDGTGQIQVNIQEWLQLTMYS
The experiment is described as follows: Fluorometric kinetic enzyme assay, m-calpain (Suc-LLVY-AMC).

Experiment [1] concerns the target T2, human 20S proteasome T-L activity (Homo sapiens, UniProt Q99436).
T2 construct: human RBC proteasome was purchased from South Bay Bio; purchased South Bay Bio; host or cells: human red blood cells
As to the kind of experiment: Fluorometric kinetic enzyme assay, 20S proteasome T-L activity (Ac-RLR-AMC). As for the experimental part:
(§1) Fluorometric kinetic enzyme inhibition assays (for details, see Supporting Information) were performed for the ChT-L activity of the constitutive 20S proteasome to compare IC50 values for 5 with linear analogue 6, unoxidized macrocycles 15a and 15b, and macrocyclic C-terminal amide 12 (Table 1). Furthermore, inhibition of the 20S proteasomal ChT-L activity was compared with T-L and PGPH-L activities and with inhibition of serine protease chymotrypsin and cysteine proteases cathepsin B and m-calpain.
(§2) 6. In Vitro Kinetic Enzyme Assays
(§3) The inhibitory potency and selectivity of the final compounds were tested using in vitro fluorescent enzyme kinetics. The enzyme assays used the fluorogenic substrate Suc-Leu-Leu-Val-Tyr-AMC (Suc-LLVY-AMC) and either the human 20S proteasome or alternate proteases chymotrypsin, m-calpain and cathepsin B. For cathepsin B, Cbz-Arg-Arg-AMC was used as the fluorogenic substrate. Kinetic enzyme assays were carried out on a fluorescent 96-well plate reader and AMC-substrate hydrolysis was measured at 353 nm excitation and 442 nm emission. Wells with inhibitor and wells with control solution were run in tandem. Vi and v0 were calculated from the slope of the measured relative fluorescent units (RFUs) graphed against time for inhibitor and control wells, respectively. Values for vi /v0 were plotted as a function of inhibitor concentration with GraphPad Prism and IC50 values were calculated from a nonlinear regression analysis of the data ([Inhibitor] vs. response, three parameters). […]
Human 20S Proteasome T-L Activity: A well was loaded with 69 µL of buffer (50 mM Tris, 1 mM EDTA, 100 mM NaCl, pH 7.5), 2 µL of fluorogenic substrate (Ac-RLR-AMC, 59 mM in DMSO), 2 µL of human 20S proteasome (2.6 µM in H2O) and either 2 µL of inhibitor (at varying concentrations in DMSO) or 2 µL of DMSO (control). […]

In another experiment the target is T3, chymotrypsin (Bos taurus, UniProt P00766).
T3 construct: chymotrypsin was purchased from Sigma Aldrich; purchased Sigma Aldrich; host or cells: bovine pancreas
As to the kind of experiment: Fluorometric kinetic enzyme assay, chymotrypsin (Suc-LLVY-AMC).

Experiment [2] addresses T4, human 20S proteasome PGPH-L activity (Homo sapiens, UniProt P28072).
T4 construct: human RBC proteasome was purchased from South Bay Bio; purchased South Bay Bio; host or cells: human red blood cells
As to the kind of experiment: Fluorometric kinetic enzyme assay, 20S proteasome PGPH-L activity (Cbz-LLE-AMC). The method, then: as §1, §2, §3

Experiment [3] has as its target T5, human 20S proteasome ChT-L activity (Homo sapiens, UniProt P28074).
T5 construct: human RBC proteasome was purchased from South Bay Bio; purchased South Bay Bio; host or cells: human red blood cells
As to the kind of experiment: Fluorometric kinetic enzyme assay, 20S proteasome ChT-L activity (Suc-LLVY-AMC). The settings on record: for IC50: constitutive human 20S proteasome, Suc-LLVY-AMC, 37 C, 10 min. The method, then:
as §1, §2
The inhibitory potency and selectivity of the final compounds were tested using in vitro fluorescent enzyme kinetics. The enzyme assays used the fluorogenic substrate Suc-Leu-Leu-Val-Tyr-AMC (Suc-LLVY-AMC) and either the human 20S proteasome or alternate proteases chymotrypsin, m-calpain and cathepsin B. For cathepsin B, Cbz-Arg-Arg-AMC was used as the fluorogenic substrate. Kinetic enzyme assays were carried out on a fluorescent 96-well plate reader and AMC-substrate hydrolysis was measured at 353 nm excitation and 442 nm emission. Wells with inhibitor and wells with control solution were run in tandem. Vi and v0 were calculated from the slope of the measured relative fluorescent units (RFUs) graphed against time for inhibitor and control wells, respectively. Values for vi /v0 were plotted as a function of inhibitor concentration with GraphPad Prism and IC50 values were calculated from a nonlinear regression analysis of the data ([Inhibitor] vs. response, three parameters).
Human 20S Proteasome ChT-L Activity: A well was loaded with 86 µL of buffer (20 mM HEPES, 0.5 mM EDTA, 0.037% SDS, pH 7.8), 2 µL of fluorogenic substrate (Suc-LLVY-AMC, 5 mM in DMSO), 20 µL of human 20S proteasome (0.34 µM in H2O) and either 2 µL of inhibitor (at varying concentrations in DMSO) or 2 µL of DMSO (control). The fluorescent signal of the cleaved AMC chromophore was measured in RFUs at 37 °C over a span of 10 minutes with measurements taken every 20 seconds. […]

The target of experiment [4] is T6, cathepsin B enzyme from human liver (Homo sapiens, UniProt P07858).
T6 construct: from human liver; purchased Millipore; host or cells: human liver
The experiment is described as follows: Fluorometric kinetic enzyme assay, cathepsin B (Cbz-Arg-Arg-AMC).

[5] abbreviates: Suc-LLVY-AMC, N.I. = no inhibition at 130 μM, read-out: IC50 m-Calpain.
[6] abbreviates: human 20S proteasome, Ac-RLR-AMC, N.I. = no inhibition at 130 μM, read-out: IC50 20S Proteasome T-L Activity.
Setting [7] is: Suc-LLVY-AMC, N.I. = no inhibition at 130 μM, read-out: IC50 Chymotrypsin.
[8] abbreviates: human 20S proteasome, Cbz-LLE-AMC, N.I. = no inhibition at 130 μM, read-out: IC50 20S Proteasome PGPH-L Activity.
Setting [9] is: human liver enzyme, Cbz-Arg-Arg-AMC, pH 6.0, N.I. = no inhibition at 130 μM, read-out: IC50 Cathepsin B.

In general, IC50 refers to the concentration at which inhibition is half-maximal. For `CC(C)C[C@@H](C=O)NC(=O)[C@@H]1Cc2ccc(cc2)Oc2cc(ccc2[N+](=O)[O-])C[C@H](NC(=O)OCc2ccccc2)C(=O)N[C@@H](CC(C)C)C(=O)N1` [compound 16, reference compound], on m-calpain, the “inhibition of m-calpain, in words” value is listed as “inhibits”. Besides, the IC50 at m-calpain (setting [5]) is 2 ± 0.3 µM; in experiment [1] (setting [6]), > 130 µM; on chymotrypsin (setting [7]), > 130 µM; in experiment [2] (setting [8]) it was 7.51 ± 2.32 µM; in experiment [3], 240 ± 60 nM; in experiment [4] (setting [9]) it was 3.1 ± 1 µM. Also, the “inhibition of cathepsin B, in words” value in experiment [4] is “inhibits”.
In the case of `CC(=O)N[C@H]1Cc2ccc([N+](=O)[O-])c(c2)Oc2ccc(cc2)CC[C@@H](C(=O)N[C@@H](CC(C)C)C(=O)[C@@]2(C)CO2)NC(=O)[C@H](CC(C)C)NC1=O` [15b], the IC50 on m-calpain (setting [5]) was > 130 µM; in experiment [1] (setting [6]), > 130 µM; on chymotrypsin (setting [7]) it was > 130 µM; in experiment [2] (setting [8]) it was > 130 µM; in experiment [3], 2900 ± 420 nM; in experiment [4] (setting [9]), > 130 µM.
Consider `CC(=O)N[C@H]1Cc2ccc([N+](=O)[O-])c(c2)Oc2ccc3c(c2)C(C[C@@H](C(=O)N[C@@H](CC(C)C)C(=O)[C@@]2(C)CO2)NC(=O)[C@H](CC(C)C)NC1=O)C(=O)N3` (stereo partly drawn) [compound 5], for which the “inhibition of m-calpain, in words” value against m-calpain is reported as “not found to have any cross-reactivity”. The IC50 was > 130 µM on m-calpain (setting [5]); > 130 µM in experiment [1] (setting [6]); > 130 µM at chymotrypsin (setting [7]); 52.5 ± 16.6 µM in experiment [2] (setting [8]); 190 ± 20 nM in experiment [3]; > 130 µM in experiment [4] (setting [9]). Also, the “inhibition of T-L activity, in words” value in experiment [1] is reported as “does not significantly inhibit”. Further, on chymotrypsin, the “inhibition of chymotrypsin, in words” value is “not found to have any cross-reactivity”. Moreover, the “inhibition of PGPH-L activity, in words” value in experiment [2] is reported as “does not significantly inhibit”. The “inhibition of cathepsin B, in words” value in experiment [4] is given as “not found to have any cross-reactivity”.
In the case of `CC(=O)N[C@H]1Cc2ccc([N+](=O)[O-])c(c2)Oc2ccc(cc2)C[C@@H](C(=O)N[C@@H](CC(C)C)C(=O)[C@@]2(C)CO2)NC(=O)[C@H](CC(C)C)NC1=O` [15a], the IC50 at m-calpain (setting [5]) was > 130 µM; in experiment [1] (setting [6]), > 130 µM; at chymotrypsin (setting [7]) it was > 130 µM; in experiment [2] (setting [8]) it was > 130 µM; in experiment [3] it was 550 ± 90 nM; in experiment [4] (setting [9]), > 130 µM.
`CC(=O)N[C@H]1Cc2ccc([N+](=O)[O-])c(c2)Oc2ccc3c(c2)C(C[C@@H](C(=O)N[C@@H](CC(C)C)C(N)=O)NC(=O)[C@H](CC(C)C)NC1=O)C(=O)N3` (stereo partly drawn) [compound 12]: the IC50 on m-calpain (setting [5]) is > 130 µM; in experiment [1] (setting [6]), 46.1 ± 3.1 µM; on chymotrypsin (setting [7]) it was > 130 µM; in experiment [2] (setting [8]), > 130 µM; in experiment [3], 25000 ± 1000 nM; in experiment [4] (setting [9]) it was > 130 µM. For the same molecule, in experiment [3] (comparison among tested inhibitors), the “inhibitory potency for the proteasome, in words” value was “least potent inhibitor”.
For the molecule `CC(C)C[C@H](NC(=O)[C@H](CCc1ccccc1)NC(=O)CN1CCOCC1)C(=O)N[C@@H](Cc1ccccc1)C(=O)N[C@@H](CC(C)C)C(=O)[C@@]1(C)CO1` [carfilzomib, reference compound], the IC50 (on m-calpain (setting [5]); on chymotrypsin (setting [7]); in experiment [4] (setting [9])) was > 130 µM each time.
For the molecule `CC(=O)N[C@@H](Cc1ccc([N+](=O)[O-])c(F)c1)C(=O)N[C@@H](CC(C)C)C(=O)N[C@@H](CC1C(=O)Nc2ccc(O)cc21)C(=O)N[C@@H](CC(C)C)C(=O)[C@@]1(C)CO1` (stereo partly drawn) [compound 6], the IC50 is > 130 µM against m-calpain; > 130 µM in experiment [1]; > 130 µM against chymotrypsin; > 130 µM in experiment [2]; 1000 ± 100 nM in experiment [3]; > 130 µM in experiment [4]. In experiment [3] (linear analogue versus macrocyclic 5), the “fold lower potency (ChT-L) than macrocycle 5” value is 4 fold.
